In PubChem BioAssay (NCI):
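96-well plates; 48 h exposure; 5 concentrations. Endpoints by linear interpolation between flanking doses. Not reached: highest tested concentration assigned. TGI marks complete inhibition of growth.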

Key:
Test in all cases: NCI anticancer screen, dose series, 48 h
[1] = tested on: 786-0 renal
[2] = tested on: A549 NSCLC
[3] = tested on: BT-549 breast
[4] = tested on: CCRF-CEM leukemia
[5] = tested on: COLO 205 colon
[6] = tested on: DU-145 prostate
[7] = tested on: EKVX NSCLC
[8] = tested on: HCC-2998 colon
[9] = tested on: HCT-116 colon
[10] = tested on: HCT-15 colon
[11] = tested on: HL-60(TB) leukemia
[12] = tested on: HOP-62 NSCLC
[13] = tested on: HOP-92 NSCLC
[14] = tested on: HT29 colon
[15] = tested on: IGROV1 ovarian
[16] = tested on: K-562 leukemia
[17] = tested on: KM12 colon
[18] = tested on: LOX IMVI melanoma
[19] = tested on: M14 melanoma
[20] = tested on: MCF7 breast
[21] = tested on: MDA-MB-231 breast
[22] = tested on: MDA-MB-435
[23] = tested on: MDA-N
[24] = tested on: MOLT-4 leukemia
[25] = tested on: NCI-H23 lung
[26] = tested on: NCI-H460 lung
[27] = tested on: NCI-H522 lung
[28] = tested on: NCI/ADR-RES ovarian
[29] = tested on: OVCAR-3 ovarian
[30] = tested on: OVCAR-4 ovarian
[31] = tested on: OVCAR-5 ovarian
[32] = tested on: OVCAR-8 ovarian
[33] = tested on: PC-3 prostate
[34] = tested on: SF-268 CNS
[35] = tested on: SF-295 CNS
[36] = tested on: SF-539 CNS
[37] = tested on: SK-MEL-28 melanoma
[38] = tested on: SK-MEL-5 melanoma
[39] = tested on: SK-OV-3 ovarian
[40] = tested on: SN12C renal
[41] = tested on: SNB-19 CNS
[42] = tested on: SNB-75 CNS
[43] = tested on: SW-620 colon
[44] = tested on: T-47D breast
[45] = tested on: TK-10 renal
[46] = tested on: U251 CNS
[47] = tested on: UACC-257 melanoma
[48] = tested on: UACC-62 melanoma
[49] = tested on: UO-31 renal
[50] = tested on: A498 renal
[51] = tested on: ACHN renal
[52] = tested on: CAKI-1 renal
[53] = tested on: HS 578T breast
[54] = tested on: MALME-3M melanoma
[55] = tested on: NCI-H226 lung
[56] = tested on: RPMI-8226 leukemia
[57] = tested on: RXF 393 renal
[58] = tested on: SK-MEL-2 melanoma

Measured: TGI

OCC1OC(n2nc(-c3ccccc3)nc2-c2cnccn2)C(O)C1O (stereo unspecified)
not listed: [50] | [51] | [52] | [53] | [54] | [55] | [56] | [57] | [58]
> 100 µM: all other assays above

O=C(CCCc1ccccn1)c1ccccc1
not listed: [17]
> 100 µM: all other assays above
